# Measurements as given in PMC2898170 (Neuropsychiatric Disease and Treatment, 2010).
# Experiments:
# [1] = biological target: T1, human peptide transporter-1 (PEPT1) (Homo sapiens, UniProt P46059); assay: inhibition of radiolabeled Gly-Sar uptake in transfected CHO cells; type: cell-based
# T1 sequence (P46059 1-708): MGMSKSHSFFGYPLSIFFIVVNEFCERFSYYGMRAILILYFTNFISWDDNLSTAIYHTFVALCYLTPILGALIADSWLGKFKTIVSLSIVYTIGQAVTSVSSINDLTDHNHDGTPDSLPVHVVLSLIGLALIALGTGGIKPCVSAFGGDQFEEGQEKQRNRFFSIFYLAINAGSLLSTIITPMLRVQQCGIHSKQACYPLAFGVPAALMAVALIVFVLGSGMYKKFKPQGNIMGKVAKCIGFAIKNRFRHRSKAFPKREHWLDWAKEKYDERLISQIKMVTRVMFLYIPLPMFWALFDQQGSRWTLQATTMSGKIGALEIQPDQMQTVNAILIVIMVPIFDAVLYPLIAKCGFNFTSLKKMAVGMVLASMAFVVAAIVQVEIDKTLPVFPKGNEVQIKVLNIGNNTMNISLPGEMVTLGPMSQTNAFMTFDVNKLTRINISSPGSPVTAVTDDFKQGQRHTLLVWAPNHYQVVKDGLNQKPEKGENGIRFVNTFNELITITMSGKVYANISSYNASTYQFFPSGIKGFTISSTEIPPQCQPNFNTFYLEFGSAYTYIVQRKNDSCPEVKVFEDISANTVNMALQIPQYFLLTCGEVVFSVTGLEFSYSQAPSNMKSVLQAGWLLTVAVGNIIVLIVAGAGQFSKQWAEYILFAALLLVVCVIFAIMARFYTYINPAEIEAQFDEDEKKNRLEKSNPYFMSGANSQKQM
# [2] = biological target: T2, PEPT2 (Homo sapiens, UniProt Q16348); assay: as above; type: cell-based
# T2 sequence (Q16348 1-729): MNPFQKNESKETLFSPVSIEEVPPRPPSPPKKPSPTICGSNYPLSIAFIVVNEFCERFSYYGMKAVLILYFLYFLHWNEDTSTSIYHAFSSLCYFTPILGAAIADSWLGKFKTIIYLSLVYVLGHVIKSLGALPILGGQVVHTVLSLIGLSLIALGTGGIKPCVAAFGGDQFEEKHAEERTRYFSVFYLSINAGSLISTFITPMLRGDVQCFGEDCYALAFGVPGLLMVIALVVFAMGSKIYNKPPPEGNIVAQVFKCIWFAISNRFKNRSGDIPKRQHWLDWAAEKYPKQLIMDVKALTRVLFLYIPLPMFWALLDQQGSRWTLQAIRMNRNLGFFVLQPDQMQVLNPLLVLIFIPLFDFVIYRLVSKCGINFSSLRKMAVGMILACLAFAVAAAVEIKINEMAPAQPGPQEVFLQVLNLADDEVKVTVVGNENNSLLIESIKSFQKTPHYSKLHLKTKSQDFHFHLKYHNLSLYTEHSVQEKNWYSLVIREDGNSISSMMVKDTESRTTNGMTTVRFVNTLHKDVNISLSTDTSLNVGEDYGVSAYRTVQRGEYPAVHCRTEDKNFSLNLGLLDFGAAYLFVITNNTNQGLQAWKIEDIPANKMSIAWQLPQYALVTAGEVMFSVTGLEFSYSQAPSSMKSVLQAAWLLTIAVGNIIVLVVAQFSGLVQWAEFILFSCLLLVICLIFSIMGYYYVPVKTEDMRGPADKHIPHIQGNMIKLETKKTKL
smiles,measurement,setting,value
C[C@@H](Cc1ccccc1)NC(=O)[C@@H](N)CCCCN [lisdexamfetamine dimesylate],IC50,[1],~4000 µM
same,IC50,[2],246 µM
